Series [1] is described as follows: Aqueous solubility of free bases and various salts by dissolution at room temperature. The series is classed as physicochemical. The note with it: water, thermodynamic from solid. The procedure: The aqueous solubility of various amine compounds and their corresponding salts were determined by dissolution of various amounts of the respective compounds at room temperature.

In series [2] the test system is PLB-Ser^16 phosphorylation. Description: PLB-Ser16 phosphorylation in isoproterenol-stimulated rat neonatal cardiomyocytes (western blot). The series is classed as cell-based. The note with it: for effect on PLB phosphorylation / Effect on PLB phosphorylation in cardiomyocytes: rat neonatal cardiomyocytes; for effect on PLB phosphorylation: Example 53; for Effect on PLB phosphorylation in cardiomyocytes: compounds 24 hours prior isoproterenol (100 nM, 5 minutes). The protocol: FIG. 7: Disruption of the AKAP18δ-PLB complex influences PLB-Ser^16 phosphorylation. Rat neonatal cardiomyocytes treated with compounds 24 hours prior stimulation with isoproterenol (100 nM, 5 minutes).
FIG. 9: Disruption of the AKAP18δ-PLB complex influences PLB-Ser^16 phosphorylation. Rat neonatal cardiomyocytes treated with compound 2g (A) or 3d (C) 24 hours prior stimulation with isoproterenol (100 nM, 5 minutes). Rat adult cardiomyocytes treated with compound 2g (B) 1 hour prior to stimulation with isoproterenol (10 nM, 5 minutes). The histograms show levels of phosphorylated Ser^16-PLB quantified by densitometry on Western blots (relative to actin levels).
Based on data from studies in cardiomyocytes assay using a peptide that blocks AKAP18δ-PLB interaction, it was expected that effective compounds would also cause disruption of the AKAP18δ-PLB complex and decrease PLB-Ser^16 phosphorylation (Lygren et al. in EMBO Reports, volume 8, issue 11, page 1061-1067 (2007). A small selection of hits from the derivatized compounds were tested in this cell-based assay, performed as described in Lygren et al.
Briefly, compounds were added to primary cultures of rat neonatal cardiomyocytes were added compounds about 24 hour prior stimulation with isoproterenol, and amount of phosphorylated Ser^16-PLB was analyzed by western blotting using a pSer^16-PLB phosphospecific antibody. Actin was used as a loading control.
Rat neonatal cardiomyocytes treated with compounds 24 hours prior stimulation with isoproterenol (100 nM, 5 minutes).

The subject of series [3] is metabolically active cells. Description: Cell viability luminescence assay. The class given is cell-based. The note with it: 24 hours incubation. The procedure:
Compound toxicity was measured in a luminescence assay that gives a signal proportional to the amount of metabolically active cells in the sample; the assay was performed as described by the supplier. All synthesized compounds were tested in the viability assay, and viability was registered at 24 hours and 72 hours.

The nature of series [4]: Aqueous solubility of tribenzylamine and salts quantified by HPLC (AUC). The class given is physicochemical. To be noted: HPLC area under curve. The protocol: Tribenzylamine and the corresponding salts were dissolved in water and the solubility was quantified (area under curve (AUC)) by HPLC
Solubility of Tribenzylamine and its Corresponding HCl and Mesylate Salts, Tested on HPLC.

[5] abbreviates: HCl salt, read-out: Solubility HCl salt.
[6] abbreviates: free base, read-out: Solubility free base.
The mark [7] stands for this setting: mesylate salt, read-out: Solubility Mesylate salt.
Where [8] appears, read: 24 hours prior isoproterenol (100 nM, 5 minutes).

This is an account of results in patent US9556111B2, “Tertiary amines for use in the treatment of cardiac disorders” (Universitetet I Oslo, priority 2012, dated 2017).

SMILES strings stand for the structures. Where two headings read alike, the source gives them in different places.

Regarding `COC(=O)c1ccc(CN(Cc2ccccc2)Cc2ccc(C(=O)OC)cc2)cc1` [Compound 17, dimethyl 4,4′-((benzylazanediyl)bis(methylene))dibenzoate], the solubility in series [1] (setting [5]), in series [1] (setting [6]) and in series [1] (setting [7]) was less than 360 µg/mL throughout.
Take `O=[N+]([O-])c1ccc(CN(Cc2ccccc2)Cc2ccc([N+](=O)[O-])cc2)cc1` [Compound 20, N-benzyl-N-(4-nitrobenzyl)-1-(4-nitrophenyl)methanamine]: the solubility in series [1] (setting [5]), in series [1] (setting [6]) and in series [1] (setting [7]) was less than 3000 µg/mL in each case.
Take `CCN(CC)c1ccc(CN(Cc2ccccc2)Cc2ccc(N(CC)CC)cc2)cc1` [Compound 23, 4-((benzyl(4-(diethylamino)benzyl)amino)methyl)-N,N-diethylaniline]: the solubility in series [1] (setting [5]) is 15000 µg/mL; in series [1] (setting [6]), less than 50 µg/mL; in series [1] (setting [7]) it was greater than 34000 µg/mL.
Taken in the same sequence, the figures for `Nc1ccc(CN(Cc2ccccc2)Cc2ccc(N)cc2)cc1` [Compound 22, 4-(((4-aminobenzyl)(benzyl)amino)methyl)aniline] were 4500 µg/mL, less than 50 µg/mL and greater than 22000 µg/mL.
Turning to `CN(C)c1ccc(CN(Cc2ccccc2)CC(c2ccccc2)c2ccccc2)cc1` [Compound 3c, 4-((benzyl(2,2-diphenylethyl)amino)methyl)-N,N-dimethylaniline], in series [2] (setting [8]), the “effect on PLB phosphorylation” value was “somewhat weaker than that of 2g”. In addition, the “Effect on PLB phosphorylation in cardiomyocytes” value (shortened to “Effect … in cardiomyocytes”) in series [2] is “+”. Moreover, in series [3], the “Viability (100 μM) 24 hours” value was 0.74.
Consider `Fc1ccc(CN(Cc2ccccc2)Cc2ccc(-c3ccccc3-c3nn[nH]n3)cc2)cc1` [Compound 3g, 1-(2′-(2H-tetrazol-5-yl)-[1,1′-biphenyl]-4-yl)-N-benzyl-N-(4-fluorobenzyl)methanamine], for which, in series [3], the “Viability (100 μM) 24 hours” value turned out to be 0.80.
Regarding `O=C(Nc1ccccc1)Nc1ccc(CN(Cc2ccccc2)Cc2ccc(NC(=O)Nc3ccccc3)cc2)cc1` [Compound 27, 1,1′-(((benzylazanediyl)bis(methylene))bis(4,1-phenylene))bis(3-phenylurea)], the solubility in series [1] (setting [5]), in series [1] (setting [6]) and in series [1] (setting [7]) was less than 500 µg/mL each time.
With `Oc1ccc(O)c(CN(Cc2ccncc2)Cc2cc(O)ccc2O)c1` [Compound 2b, 2,2′-(((pyridin-4-ylmethyl)azanediyl)bis(methylene))bis(benzene-1,4-diol)], the “Effect … in cardiomyocytes” value in series [2] is “−”. The “Viability (100 μM) 24 hours” value in series [3] is recorded as 0.10.
Take `Fc1ccc(CN(Cc2ccc(F)cc2)Cc2nccs2)cc1` [Compound 2c, N,N-bis(4-fluorobenzyl)-1-(thiazol-2-yl)methanamine]: in series [3], the “Viability (100 μM) 24 hours” value amounted to 1.11.
The same measure, in the same setting: as for `CC(c1ccccc1)N(Cc1ccc(N(C)C)cc1)Cc1ccc(N(C)C)cc1` (stereo not shown) [Compound 2h, 4-(((4-(dimethylamino)benzyl)(1-phenylethyl)amino)methyl)-N,N-dimethylaniline], the figure is 0.91.
Take `O=C(Nc1ccc(F)cc1)Nc1ccc(CN(Cc2ccccc2)Cc2ccc(NC(=O)Nc3ccc(F)cc3)cc2)cc1` [Compound 26, 1,1′-(((benzylazanediyl)bis(methylene))bis(4,1-phenylene))bis(3-(4-fluorophenyl)urea)]: the solubility in series [1] (setting [5]), in series [1] (setting [6]) and in series [1] (setting [7]) was less than 1500 µg/mL in each case.
In the case of `c1ccc(CN(Cc2ccccc2)Cc2ccccc2)cc1` [Tribenzylamine], the “AUC HCl salt” value in series [4] (HCl salt dissolved in water) is 406 mAu*s. In addition, the “AUC Free base” value in series [4] (free base dissolved in water) is listed as “≈0 mAu*s”. The “AUC Mesylate salt” value in series [4] (mesylate salt dissolved in water) is on record as 1975 mAu*s.
`Fc1ccc(CN(Cc2ccncc2)Cc2ccc(F)cc2)cc1` [Compound 2a, N,N-bis(4-fluorobenzyl)-1-(pyridin-4-yl)methanamine]: the “Viability (100 μM) 24 hours” value in series [3] came out at 0.85.
The same measure, in the same setting: the figure for `Oc1ccc(O)c(CN(Cc2ccncc2)Cc2ccc(F)cc2)c1` [Compound 3b, 2-(((4-fluorobenzyl)(pyridin-4-ylmethyl)amino)methyl)benzene-1,4-diol] is 0.03.
With `CN(C)c1ccc(CN(Cc2ccccc2)Cc2ccc3c(c2)CCO3)cc1` [Compound 3d], the IC50 in series [2] (Rattus norvegicus, Cardiomyocyte, neonatal cardiomyocytes, 24 hours prior isoproterenol (100 nM, 5 minutes), read-out: half-maximal effect, inhibition of phospholamban phosphorylation) was roughly 100 µM. Further, in series [2] (setting [8]), the “effect on PLB phosphorylation” value was “did not appear to have an effect”. For the same compound, the “Effect … in cardiomyocytes” value in series [2] is “−”. Moreover, the “Viability (100 μM) 24 hours” value in series [3] was determined as 0.58.
Consider `COC(=O)c1ccc(CN(Cc2ccccc2)Cc2ccc(C(=O)OC)cc2)cc1` [Compound 2f, dimethyl 4,4′-((benzylazanediyl)bis(methylene))dibenzoate], for which, in series [3], the “Viability (100 μM) 24 hours” value worked out at 0.92.
Still for that read-out and setting: the figure for `COc1ccc(CN(Cc2ccc(OC)cc2)Cc2nccs2)cc1` [Compound 2d, N,N-bis(4-methoxybenzyl)-1-(thiazol-2-yl)methanamine] is 1.15; for `CC(C)(C)c1ccc(CN(Cc2ccncc2)Cc2ccc(F)cc2)cc1` [Compound 3a, N-(4-(tert-butyl)benzyl)-N-(4-fluorobenzyl)-1-(pyridin-4-yl)methanamine] it is 0.79; for `COc1ccc(CN(Cc2ccccc2)Cc2ccc(OC)cc2)cc1` [Compound 2e, N-benzyl-N-(4-methoxybenzyl)-1-(4-methoxyphenyl)methanamine] it is 1.01.
On to `Cc1ccc(NC(=O)Nc2ccc(CN(Cc3ccccc3)Cc3ccc(NC(=O)Nc4ccc(C)cc4)cc3)cc2)cc1` [Compound 25, 1,1′-(((benzylazanediyl)bis(methylene))bis(4,1-phenylene))bis(3-(p-tolyl)urea)], for which the solubility in series [1] (setting [5]), in series [1] (setting [6]) and in series [1] (setting [7]) was less than 50 µg/mL each time.
Take `COC(=O)c1ccc(CN(Cc2ccccc2)Cc2ccc(F)cc2)cc1` [Compound 3e, methyl 4-((benzyl(4-fluorobenzyl)amino)methyl)benzoate]: the “Viability (100 μM) 24 hours” value in series [3] came out at 0.57.
For `O=C(O)c1ccc(CN(Cc2ccccc2)Cc2ccc(F)cc2)cc1` [Compound 3f, 4-((benzyl(4-fluorobenzyl)amino)methyl)benzoic acid], the “effect on PLB phosphorylation” value in series [2] (setting [8]) is listed as “did not appear to have an effect”. For the same compound, the “Effect … in cardiomyocytes” value in series [2] was “+”. Further, the “Viability (100 μM) 24 hours” value in series [3] was determined as 0.98.
For `O=C(O)c1ccc(CN(Cc2ccccc2)Cc2ccc(C(=O)O)cc2)cc1` [Compound 18], the solubility in series [1] (setting [5]), in series [1] (setting [6]) and in series [1] (setting [7]) was less than 50 µg/mL throughout.
`CC(C)(C)c1ccc(CN(Cc2ccccc2)Cc2ccc(C(C)(C)C)cc2)cc1` [Compound 19, N-benzyl-N-(4-(tert-butyl)benzyl)-1-(4-(tert-butyl)phenyl)methanamine]: the solubility in series [1] (setting [5]), in series [1] (setting [6]) and in series [1] (setting [7]) was less than 50 µg/mL in each case.
In the case of `CN(C)c1ccc(CN(Cc2ccccc2)Cc2ccc(N(C)C)cc2)cc1` [Compound 29, 4-((benzyl(4-(dimethylamino)benzyl)amino)methyl)-N,N-dimethylaniline], the solubility in series [1] (setting [5]) is 6000 µg/mL; in series [1] (setting [6]) it was less than 160 µg/mL; in series [1] (setting [7]) it was 94000 µg/mL.
